Assay results as given in patent publication US20180280450A1, “METHOD OF PROMOTING IMMUNE HEALTH USING THE WATER-SOLUBLE COMPONENT FROM GENUS EUGLENA ORGANISM” (KEMIN INDUSTRIES, INC., priority 2017, published 2018).

Experiments:
human immune cells = assay: In vitro bioassay screening of Test Products in cell cultures of human immune cells (overall summary); type: cell-based; settings: sample preparation after 0.2 micron filtration
Description: Bioassay screening of nutraceutical ingredients and one blend were performed to evaluate their potency and mechanisms of action. The screening involved testing in cell cultures involving human immune cells. As part of this process, selected immune ingredients currently on the market were compared for similarities and differences of mechanisms of action, as well as efficacy (active dose comparison). Eight Test Products labeled Test Products A-H, as noted in the various tables and explained below were employed in this study.
The water-soluble Test Products were prepared by taking 0.25 grams of powder into 5 mL of physiological saline. The suspension was incubated under gentle agitation for one hour, after which any remaining solids were removed by centrifugation. Insoluble, particulate Test Products were prepared by taking 0.5 grams of powder into 3 mL of physiological saline. One (1) mL ceramic beads (200 uM zirconium) were added, and bead milling performed by 10 cycles of repeated 60-second pulsing (vortex high speed, 60 one (1) second pulses) with placement of samples in an ice-bath between cycles. Subsequently, seven (7) mL of physiological saline was then added to bring the samples to a 50 mg/mL final concentration. […]

monocytes = assay: Immune cell activation by flow cytometry (CD69) on monocytes in PBMC cultures; type: cell-based, human; settings: dose not specified
Description: (§1) Human peripheral blood mononuclear cell (PBMC) cultures were used for this testing. A set of cultures was left untreated as negative control cultures for immune activation. Triplicate sets of cultures were treated with serial dilutions of the test product. The inflammatory bacterial lipopolysaccharide LPS from E. coli was used as a positive control for activation. The cultures were incubated for 24 hours, after which the cells and the culture supernatants were harvested and used to monitor the reactions in each culture. […]
(§2) The cells were stained with a combination of monoclonal antibodies to monitor activation status, and analyzed by multi-parameter flow cytometry, using an acoustic dual-laser Attune® flow cytometer. […]
(§3) Immune cell activation was analyzed after the cell viability testing. […] The cells were stained with a combination of monoclonal antibodies to monitor activation, and analyzed by multi-parameter flow cytometry, using an acoustic dual laser Attune® flow cytometer. […]
(§4) The cellular staining for activation, performed using a fluorescently labelled monoclonal antibody to the CD69 and CD25 activation markers, allowed researchers to measure cellular activation by fluorescence intensity. […]

Solubility in water = type: physicochemical
[1] = test system: CD69/CD25 double positive lymphocytes; assay: CD69/CD25 double positive lymphocytes by flow cytometry in PBMC cultures; type: cell-based, human; settings: 24-hour PBMC cultures, dose not specified
Description: as §1, §2, §3, §4

T-cells = assay: Immune cell activation by flow cytometry (CD69/CD25) on T-cells in PBMC cultures; type: cell-based, human; settings: 24-hour PBMC cultures
Description: as §1, §2, §3, §4

non-T non-NK lymphocytes = assay: Immune cell activation by flow cytometry (CD69/CD25) on non-T non-NK lymphocytes in PBMC cultures; type: cell-based, human; settings: 24-hour PBMC cultures
Description: as §1, §2, §3, §4

paramylon [Test Product D]
activity in the in vitro screen (overall) (human immune cells): essentially no activity
activity in the in vitro screen (overall) (human immune cells; listed as Sample D): essentially inactive
CD69 expression on monocytes (monocytes): only exerted minor, if any, effects
solubility in water (Solubility in water): completely insoluble
number of CD69/CD25 double-positive lymphocytes [1]: only exerted minor, if any, effects
CD25 expression on T-cells (T-cells; at lower doses): varying degrees of suppressing CD25 expression
CD69 expression on T-cells (T-cells; figures show T-cells): only exerted minor effects
CD69 expression on non-T non-NK cells (non-T non-NK lymphocytes; dose not specified (FIG. 19)): only exerted minor, if any, effects
CD25 expression on non-T non-NK cells (non-T non-NK lymphocytes; FIG. 21 shows CD25): only exerted minor, if any, effects
